Assay results as given in patent US9957569B2, “Recurrent gene fusions in prostate cancer” (THE REGENTS OF THE UNIVERSITY OF MICHIGAN, priority 2005, dated 2018).

Legend:
ERG [1] = assay: In vitro androgen responsiveness: ERG expression by QPCR after R1881; format: cell-based, human; details: 1 nM R1881, 24 h; for increase in expression of ERG compared to untreated controls: QPCR ERG/GAPDH; for expression of ERG after R1881 treatment compared to untreated controls: QPCR
Experimental: Quantitative PCR (QPCR) was performed using SYBR Green dye on an Applied Biosystems 7300 Real Time PCR system essentially as described (Chinnaiyan et al., Cancer Res 65, 3328 (2005); Rubin et al., Cancer Res 64, 3814 (2004)). Briefly, 1-5 μg of total RNA was reverse transcribed into cDNA using SuperScript III (Invitrogen) in the presence of random primers or random primers and oligo dT primers. All reactions were performed with SYBR Green Master Mix (Applied Biosystems) and 25 ng of both the forward and reverse primer using the manufacturer's recommended thermocycling conditions. All reactions were subjected to melt curve analysis and products from selected experiments were resolved by electrophoreses on 1.5% agarose gels. For each experiment, threshold levels were set during the exponential phase of the QPCR reaction using Sequence Detection Software version 1.2.2 (Applied Biosystems). The amount of each target gene relative to the housekeeping gene glyceraldehyde-3-phosphate dehydrogenase (GAPDH) for each sample was determined using the comparative threshold cycle (Ct) method (Applied Biosystems User Bulletin #2), with the cDNA sample serving as the calibrator for each experiment described in the figure legend. All oligonucleotide primers were synthesized by Integrated DNA Technologies. GAPDH primers were as described (Vandesompele et al., Genome Biol 3, RESEARCH0034 (2002)) and all other primers are listed (Table 4).
RWPE, LNCaP, VCap DuCaP, PC3 and PC3 cells stably transfected with the human androgen receptor (PC3+AR) (3) were treated for 24 h with 1% ethanol control or 1 nM of the synthetic androgen R1881. Total RNA was isolated and subjected to reverse transcription and QPCR as described above with ERG exon 5-6_f and _r primers. The relative amount of ERG/GAPDH for each sample was calibrated to the RWPE control sample.

[2] = system: LNCaP prostate cancer cell line; assay: Androgen stimulation of LNCaP cells, qPCR of endogenous 5′ fusion partner genes; format: cell-based, human; details: 1 nM R1881, 24 h
Experimental: For androgen stimulation experiments, LNCaP cells were grown in charcoal-stripped serum containing media for 24 hours before treatment for 24 hours with 1% ethanol or 1 nM of methyltrienolone (R1881, NEN Life Science Products, Boston, Mass.) dissolved in ethanol.
Quantitative PCR (QPCR) was performed using Power SYBR Green Mastermix (Applied Biosystems, Foster City, Calif.) on an Applied Biosystems 7300 Real Time PCR system as described (Tomlins et al., Cancer Res 66, 3396-400 (2006); Tomlins et al., Recurrent fusion of TMPRSS2 and ETS transcription factor genes in prostate cancer. Science 310, 644-8 (2005)). HMBS and GAPDH5, and PSA6 primers were as described. Androgen stimulation reactions were performed in quadruplicate, all other reactions were performed in duplicate.

[3] = system: LNCaP prostate cancer cell line; assay: Androgen stimulation time course of LNCaP cells, Q-PCR of FLJ35294, CANT1 and DDX5 transcripts; format: cell-based, human
Experimental: Q-PCR was carried out according to standard protocols.
Samples were normalized by the mRNA level of the housekeeping gene GAPDH. Androgen stimulation reactions were performed in triplicate, and all other reactions were performed in duplicate. RNA Ligase Mediated Rapid Amplification of cDNA Ends (RLM-RACE)

ERG [4] = assay: Androgen regulation of Erg expression in LNCap and VCaP cells; format: cell-based, human; details: VCaP (TMPRSS2-ERG+), varying amounts of R1881, 48 hrs
Experimental: This Example describes the androgen regulation of Erg expression. LNCap (TMPRSS2-ERG-) and VCaP (TMPRSS2-ERG+) cell lines were used. The cells were contacted with varying amounts of R1881 for 48 hrs. Expression of Erg, PSA (+control) and beta-tubulin (−control) were assayed.

[5] = system: VCaP and LNCaP prostate cancer cell lines; assay: QPCR of PSA and ETV1 in VCaP and LNCaP cells treated with R1881; format: cell-based, human
androgen receptor (AR) = androgen receptor (AR) (Homo sapiens, UniProt P10275, T878A); details: LNCaP
Chain of androgen receptor (AR) (P10275 whole entry T878A): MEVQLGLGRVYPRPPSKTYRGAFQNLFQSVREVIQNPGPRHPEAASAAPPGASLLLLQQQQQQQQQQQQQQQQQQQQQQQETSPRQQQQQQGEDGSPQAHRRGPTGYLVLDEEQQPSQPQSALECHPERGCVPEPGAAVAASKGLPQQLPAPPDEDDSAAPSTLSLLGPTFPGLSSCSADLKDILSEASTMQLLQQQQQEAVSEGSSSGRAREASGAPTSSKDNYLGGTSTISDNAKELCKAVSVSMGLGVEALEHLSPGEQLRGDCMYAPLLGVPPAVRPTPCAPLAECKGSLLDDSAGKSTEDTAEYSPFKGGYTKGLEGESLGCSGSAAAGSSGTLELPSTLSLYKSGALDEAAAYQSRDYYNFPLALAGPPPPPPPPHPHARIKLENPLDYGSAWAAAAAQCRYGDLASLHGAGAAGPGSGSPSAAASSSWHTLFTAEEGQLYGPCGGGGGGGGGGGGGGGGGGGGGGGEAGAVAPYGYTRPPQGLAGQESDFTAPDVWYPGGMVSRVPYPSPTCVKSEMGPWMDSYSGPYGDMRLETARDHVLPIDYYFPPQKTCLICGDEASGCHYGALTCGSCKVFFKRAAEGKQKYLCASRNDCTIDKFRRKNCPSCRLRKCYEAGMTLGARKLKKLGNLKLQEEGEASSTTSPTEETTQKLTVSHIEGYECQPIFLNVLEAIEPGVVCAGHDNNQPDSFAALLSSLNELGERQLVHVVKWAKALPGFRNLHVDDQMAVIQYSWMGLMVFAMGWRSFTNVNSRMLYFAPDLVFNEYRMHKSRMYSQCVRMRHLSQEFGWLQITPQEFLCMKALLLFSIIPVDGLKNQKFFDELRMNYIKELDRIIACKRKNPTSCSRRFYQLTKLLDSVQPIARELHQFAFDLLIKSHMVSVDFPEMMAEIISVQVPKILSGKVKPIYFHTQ
Experimental: LNCaP, an androgen sensitive prostate cancer cell line, was maintained in RPMI with 10% FBS. For androgen stimulation experiments, cells were placed for two days in phenol red-free RPMI, supplemented with 5% of charcoal-treated FCS before being treated with 1% ethanol or 10 nM R1881 for the following time points 0, 3, 12, 24, and 48 hours. Cells were treated for 16 hours with androgen and crosslinked for chromatin immunoprecipitation (ChIP) analysis.
The input whole-cell extract DNA and the ChIP-enriched DNA were amplified by ligation-mediated PCR, and subjected to qPCR assessment of target promoters. ChIP enrichment was evaluated as a percentage of input DNA.

SMILES: C[C@]1(O)CC[C@H]2[C@@H]3CCC4=CC(=O)CCC4=C3C=C[C@@]21C [R1881, methyltrienolone]
- increase in expression of ERG compared to untreated controls (ERG [1]; DuCaP cells): 2.57 fold
- expression of ERG after R1881 treatment compared to untreated controls (ERG [1]; LnCaP cells): 0.86 fold
- expression of ERG after R1881 treatment compared to untreated controls (ERG [1]; PC3 cells expressing the androgen receptor): 0.73 fold
- expression of ERG after R1881 treatment compared to untreated controls (ERG [1]; PC3 cells): 1.28 fold
- expression of ERG after R1881 treatment compared to untreated controls (ERG [1]; RWPE cells): 1.37 fold
- increase in expression of ERG compared to untreated controls (ERG [1]; VCaP cells): 5.02 fold
- decrease in expression of C15ORF21 ([2]; P=0.0012): 1.9 fold
- change in expression of HNRPA2B1 (not significantly changed) ([2]; P=0.29): 1.17 fold
- increase in endogenous expression of HERV-K_22q11.23 ([2]; P=2.4E-4): 7.8 fold
- increase in endogenous expression of SLC45A3 ([2]; P=6.5E-4): 21.6 fold
- increase in endogenous expression of TMPRSS2 ([2]; P=9.95E-7): 14.8 fold
- expression of DDX5 on R1881 stimulation ([3]; 10 nM R1881, Q-PCR): not affected
- induction of expression of endogenous CANT1 ([3]; 10 nM R1881, at 24 hours, Q-PCR, P=0.0014): 3.8 fold
- induction of expression of endogenous FL35294 ([3]; 10 nM R1881, at 48 hours, Q-PCR, P=0.0006): 11.6 fold
- ERG expression, androgen dependence (ERG [4]): androgen dependent
- ETV1 expression by QPCR ([5]; LNCaP cells, 1 nM R1881, 48 hours): induction
- ETV1 expression ([5]; androgen-responsive VCaP cell line): does not induce
- PSA expression by QPCR (normalized to GAPDH) ([5]; both VCaP and LNCaP cells, 1 nM R1881, 48 hours): induction
- AR recruitment to the promoter region of DDX5 (ChIP) (androgen receptor (AR); 16 hours after R1881): not recruited
- AR occupancy of the promoter region of CANT1 (ChIP enrichment) (androgen receptor (AR); 16 hours after R1881, P=0.0014): 40 fold
- AR occupancy of the promoter region of FL35294 (ChIP enrichment) (androgen receptor (AR); 16 hours after R1881, P=0.005): 9 fold
